# Test results from PubChem BioAssay (NCI).
#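 48-hour exposure; five concentrations; linearly interpolated endpoints. GI50 marks 50% less growth. TGI denotes the concentration required for complete inhibition of growth.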
# Legend:
# Experiment in all cases: NCI tumour cell line growth inhibition, 48 h
# OVCAR-4 ovarian = tested on: OVCAR-4 ovarian
# MDA-MB-231 breast = tested on: MDA-MB-231 breast
# SF-539 CNS = tested on: SF-539 CNS
# CCRF-CEM leukemia = tested on: CCRF-CEM leukemia
# NCI/ADR-RES ovarian = tested on: NCI/ADR-RES ovarian
# SK-MEL-2 melanoma = tested on: SK-MEL-2 melanoma
# NCI-H522 lung = tested on: NCI-H522 lung
# UACC-62 melanoma = tested on: UACC-62 melanoma
# SN12C renal = tested on: SN12C renal
# SNB-75 CNS = tested on: SNB-75 CNS
# A498 renal = tested on: A498 renal
# TK-10 renal = tested on: TK-10 renal
# HT29 colon = tested on: HT29 colon
# A549 NSCLC = tested on: A549 NSCLC
# MOLT-4 leukemia = tested on: MOLT-4 leukemia
# HOP-62 NSCLC = tested on: HOP-62 NSCLC
# SF-295 CNS = tested on: SF-295 CNS
# MALME-3M melanoma = tested on: MALME-3M melanoma
# HCC-2998 colon = tested on: HCC-2998 colon
# HCT-116 colon = tested on: HCT-116 colon
# SK-MEL-28 melanoma = tested on: SK-MEL-28 melanoma
# EKVX NSCLC = tested on: EKVX NSCLC
# UACC-257 melanoma = tested on: UACC-257 melanoma
# SW-620 colon = tested on: SW-620 colon
# IGROV1 ovarian = tested on: IGROV1 ovarian
# COLO 205 colon = tested on: COLO 205 colon
# ACHN renal = tested on: ACHN renal
# NCI-H460 lung = tested on: NCI-H460 lung
# SK-OV-3 ovarian = tested on: SK-OV-3 ovarian
# HOP-92 NSCLC = tested on: HOP-92 NSCLC
# BT-549 breast = tested on: BT-549 breast
# KM12 colon = tested on: KM12 colon
# OVCAR-3 ovarian = tested on: OVCAR-3 ovarian
# DU-145 prostate = tested on: DU-145 prostate
# UO-31 renal = tested on: UO-31 renal
# MCF7 breast = tested on: MCF7 breast
# SNB-19 CNS = tested on: SNB-19 CNS
# HCT-15 colon = tested on: HCT-15 colon
# MDA-MB-435 = tested on: MDA-MB-435
# OVCAR-8 ovarian = tested on: OVCAR-8 ovarian
# CAKI-1 renal = tested on: CAKI-1 renal
# OVCAR-5 ovarian = tested on: OVCAR-5 ovarian
# SK-MEL-5 melanoma = tested on: SK-MEL-5 melanoma
# U251 CNS = tested on: U251 CNS
# HL-60(TB) leukemia = tested on: HL-60(TB) leukemia
# M14 melanoma = tested on: M14 melanoma
# K-562 leukemia = tested on: K-562 leukemia
# RPMI-8226 leukemia = tested on: RPMI-8226 leukemia
# SF-268 CNS = tested on: SF-268 CNS
smiles,measurement,setting,value
O[C@@H]1CCCCN1Cc1cc2cc3c(cc2c2cc(OCc4ccccc4)ccc12)OCO3,GI50,OVCAR-4 ovarian,1450 nM
same,TGI,OVCAR-4 ovarian,2900 nM
same,GI50,MDA-MB-231 breast,1750 nM
same,TGI,MDA-MB-231 breast,3330 nM
same,GI50,SF-539 CNS,1550 nM
same,TGI,SF-539 CNS,2960 nM
same,GI50,CCRF-CEM leukemia,176 nM
same,TGI,CCRF-CEM leukemia,4610 nM
same,GI50,NCI/ADR-RES ovarian,1500 nM
same,TGI,NCI/ADR-RES ovarian,3470 nM
same,GI50,SK-MEL-2 melanoma,1700 nM
same,TGI,SK-MEL-2 melanoma,3160 nM
same,GI50,NCI-H522 lung,1490 nM
same,TGI,NCI-H522 lung,2910 nM
same,GI50,UACC-62 melanoma,1890 nM
same,TGI,UACC-62 melanoma,3460 nM
same,GI50,SN12C renal,1420 nM
same,TGI,SN12C renal,2770 nM
same,GI50,SNB-75 CNS,1660 nM
same,TGI,SNB-75 CNS,3080 nM
same,GI50,A498 renal,1410 nM
same,TGI,A498 renal,2750 nM
same,GI50,TK-10 renal,2080 nM
same,TGI,TK-10 renal,4050 nM
same,GI50,HT29 colon,1030 nM
same,TGI,HT29 colon,2450 nM
same,GI50,A549 NSCLC,1620 nM
same,TGI,A549 NSCLC,3310 nM
same,GI50,MOLT-4 leukemia,666 nM
same,TGI,MOLT-4 leukemia,8050 nM
same,GI50,HOP-62 NSCLC,1550 nM
same,TGI,HOP-62 NSCLC,2890 nM
same,GI50,SF-295 CNS,1590 nM
same,TGI,SF-295 CNS,3030 nM
same,GI50,MALME-3M melanoma,1660 nM
same,TGI,MALME-3M melanoma,3370 nM
same,GI50,HCC-2998 colon,509 nM
same,TGI,HCC-2998 colon,1830 nM
same,GI50,HCT-116 colon,1040 nM
same,TGI,HCT-116 colon,2210 nM
same,GI50,SK-MEL-28 melanoma,1550 nM
same,TGI,SK-MEL-28 melanoma,2940 nM
same,GI50,EKVX NSCLC,2010 nM
same,TGI,EKVX NSCLC,3970 nM
same,GI50,UACC-257 melanoma,1860 nM
same,TGI,UACC-257 melanoma,3660 nM
same,GI50,SW-620 colon,1170 nM
same,TGI,SW-620 colon,2700 nM
same,GI50,IGROV1 ovarian,1680 nM
same,TGI,IGROV1 ovarian,3110 nM
same,GI50,COLO 205 colon,1280 nM
same,TGI,COLO 205 colon,2660 nM
same,GI50,ACHN renal,1470 nM
same,TGI,ACHN renal,2790 nM
same,GI50,NCI-H460 lung,1370 nM
same,TGI,NCI-H460 lung,2760 nM
same,GI50,SK-OV-3 ovarian,1640 nM
same,TGI,SK-OV-3 ovarian,3390 nM
same,GI50,HOP-92 NSCLC,1350 nM
same,TGI,HOP-92 NSCLC,2930 nM
same,GI50,BT-549 breast,1730 nM
same,TGI,BT-549 breast,3310 nM
same,GI50,KM12 colon,1590 nM
same,TGI,KM12 colon,3160 nM
same,GI50,OVCAR-3 ovarian,1500 nM
same,TGI,OVCAR-3 ovarian,2950 nM
same,GI50,DU-145 prostate,1630 nM
same,TGI,DU-145 prostate,3020 nM
same,GI50,UO-31 renal,1530 nM
same,TGI,UO-31 renal,2890 nM
same,GI50,MCF7 breast,1330 nM
same,TGI,MCF7 breast,2730 nM
same,GI50,SNB-19 CNS,1630 nM
same,TGI,SNB-19 CNS,3590 nM
same,GI50,HCT-15 colon,1810 nM
same,TGI,HCT-15 colon,4370 nM
same,GI50,MDA-MB-435,1630 nM
same,TGI,MDA-MB-435,3060 nM
same,GI50,OVCAR-8 ovarian,1190 nM
same,TGI,OVCAR-8 ovarian,3030 nM
same,GI50,CAKI-1 renal,1570 nM
same,TGI,CAKI-1 renal,2910 nM
same,GI50,OVCAR-5 ovarian,1730 nM
same,TGI,OVCAR-5 ovarian,3930 nM
same,GI50,SK-MEL-5 melanoma,1620 nM
same,TGI,SK-MEL-5 melanoma,3090 nM
same,GI50,U251 CNS,1520 nM
same,TGI,U251 CNS,2950 nM
same,GI50,HL-60(TB) leukemia,1500 nM
same,TGI,HL-60(TB) leukemia,3570 nM
same,GI50,M14 melanoma,1590 nM
same,TGI,M14 melanoma,2960 nM
same,GI50,K-562 leukemia,1450 nM
same,TGI,K-562 leukemia,4140 nM
same,GI50,RPMI-8226 leukemia,1410 nM
same,TGI,RPMI-8226 leukemia,3380 nM
same,GI50,SF-268 CNS,1260 nM
same,TGI,SF-268 CNS,2610 nM
